Test results: patent US8445538B2, “Glucagon receptor antagonist compounds” (Merck Sharp & Dohme Corp., priority 2008, dated 2013)

Target: T1, human glucagon receptor (Homo sapiens, UniProt P47871)
T1 construct: expressed in transfected cells; cell membranes used
Assay: Glucagon Receptor Binding Assay (125I-glucagon, SPA, CHO cell membranes)
Conditions: 125I-Glucagon binding to membranes of CHO cells expressing cloned human glucagon receptor; more active isomer of indicated compounds
Description: Glucagon Receptor Binding Assay
A stable CHO (Chinese hamster ovary) cell line expressing cloned human glucagon receptor was maintained as described (Chicchi, et. al. J Biol Chem 272, 7765-9 (1997); Cascieri, et. al. J Biol Chem 274, 8694-7 (1999)). To determine antagonistic binding affinity of compounds, 0.001-0.003 mg of cell membranes from these cells were pre-incubated with 0.100 mg WGA-coated PVT SPA beads (Amersham) for 20 minutes at room temperature in 25 μL of a buffer containing 50 mM Tris-HCl (pH 7.5), 5 mM MgCl2, 2 mM EDTA, 0.1% BSA and 3% glycerol in Costar 384 well plates with clear bottoms (#3706). Next, 25 μL of ^125I-Glucagon (New England Nuclear, Mass.) (1×10^−14 mol per well) and either 1 μL solutions of test compounds or 0.001 mM unlabeled glucagon or DMSO were added and mixed. After 4-12 hours incubation at room temperature, the radioactivity bound to the cell membranes was determined in a radioactive emission detection counter (Wallac-Microbeta). Data were analyzed using the Data Analyzer software program of Merck & Co., Inc. The IC50 values were calculated using non-linear regression analysis assuming single-site competition.

T1 sequence (P47871 26-477): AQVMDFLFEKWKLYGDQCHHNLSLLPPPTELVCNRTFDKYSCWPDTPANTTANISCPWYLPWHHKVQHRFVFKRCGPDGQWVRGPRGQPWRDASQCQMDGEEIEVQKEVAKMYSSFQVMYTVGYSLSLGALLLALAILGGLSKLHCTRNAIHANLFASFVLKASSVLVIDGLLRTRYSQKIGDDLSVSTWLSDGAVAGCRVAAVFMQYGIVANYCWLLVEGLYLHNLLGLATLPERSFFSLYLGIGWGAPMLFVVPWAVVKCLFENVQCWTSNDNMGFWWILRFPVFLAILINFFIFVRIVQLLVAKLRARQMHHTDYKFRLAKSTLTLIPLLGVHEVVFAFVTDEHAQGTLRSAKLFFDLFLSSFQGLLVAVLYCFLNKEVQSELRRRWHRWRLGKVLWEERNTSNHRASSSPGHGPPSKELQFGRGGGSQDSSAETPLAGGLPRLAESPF

Row | Structure (SMILES) | IC50 [nM]
1 | CCC[C@H](c1ccc(C(=O)NCCC(=O)O)cc1)C(c1ccc(Cl)cc1)c1ccc(F)c2ccccc12 (stereo partly drawn) [Example 1, N-(4-{(1S)-1-[(4-chlorophenyl)(4-fluoro-1-naphthyl)methyl]butyl}benzoyl)-β-alanine] | 3.3
2 | CCC[C@H](c1ccc(C(=O)NCCC(=O)O)cc1)C(c1ccc(Cl)cc1)c1ccc2cc(OC)ccc2c1 (stereo partly drawn) [Example 2, N-(4-{(1S)-1-[(4-chlorophenyl)(6-methoxy-2-naphthyl)methyl]butyl}benzoyl)-β-alanine] | 0.85
3 | CCC[C@H](c1ccc(C(=O)NCCC(=O)O)cc1)C(c1ccc(Cl)cc1)c1ccc2cc(OC(F)F)ccc2c1 (stereo partly drawn) [Example 3, N-[4-((1S)-1-{(4-chlorophenyl)[6-(difluoromethoxy)-2-naphthyl]methyl}butyl)benzoyl]-β-alanine] | 0.37
4 | CCC[C@H](c1ccc(C(=O)NCCC(=O)O)cc1)C(c1ccc(Cl)cc1)c1ccc2cc(C#N)ccc2c1 (stereo partly drawn) [Example 4] | 1.5
5 | CCC[C@H](c1ccc(C(=O)NCCC(=O)O)cc1)C(c1ccc(C#N)cc1)c1ccc(F)c2ccccc12 (stereo partly drawn) [Example 5, N-(4-{(1S)-1-[(4-cyanophenyl)(4-fluoro-1-naphthyl)methyl]butyl}benzoyl)-β-alanine] | 2.1
6 | CCC[C@H](c1ccc(C(=O)NC[C@H](O)C(=O)O)cc1)C(c1ccc(Cl)cc1)c1ccc2cc(OC)ccc2c1 (stereo partly drawn) [Example 7, (2S)-3-[(4-{(1S)-1-[(4-chlorophenyl)(6-methoxy-2-naphthyl)methyl]butyl}benzoyl)amino]-2-hydroxypropanoic acid] | 1.7
7 | CCCC(c1ccc(C(=O)NCCC(=O)O)cc1)C(c1ccc(C)cc1)c1ccc(F)c2ccccc12 (stereo not drawn) [Example 12] | 4.3
8 | CCCC(c1ccc(C(=O)NCCC(=O)O)cc1)C(c1ccc(Cl)cc1)c1ccc(OC)c2ccc(OC)cc12 (stereo not drawn) [Example 21] | 14.2
9 | CCCC(c1ccc(C(=O)NCCC(=O)O)cc1)C(c1ccc(Cl)cc1)c1c(Cl)cc(OC)c2c(F)cccc12 (stereo not drawn) [Example 30] | 53
10 | CCCC(c1ccc(C(=O)NCCC(=O)O)cc1)C(c1ccc(Cl)cc1)c1ccc2cc(SC)ccc2c1 (stereo not drawn) [Example 36] | 0.83
11 | CCCC(c1ccc(C(=O)NCCC(=O)O)cc1)C(c1ccc(Cl)cc1)c1ccc2cc(S(C)(=O)=O)ccc2c1 (stereo not drawn) [Example 37] | 2.9
12 | CCC[C@H](c1ccc(C(=O)NCC(F)(F)C(=O)O)cc1)C(c1ccc(Cl)cc1)c1ccc(F)c2ccccc12 (stereo partly drawn) [Example 52] | 98
13 | CCC[C@H](c1ccc(C(=O)NCCS(=O)(=O)O)cc1)C(c1ccc(Cl)cc1)c1ccc(F)c2ccccc12 (stereo partly drawn) [Example 53] | 3.4
14 | CCC[C@H](c1ccc(C(=O)NCc2nnn[nH]2)cc1)C(c1ccc(Cl)cc1)c1ccc(F)c2ccccc12 (stereo partly drawn) [Example 55] | 4
15 | CCC[C@H](c1ccc(C(=O)Nc2nnn[nH]2)cc1)C(c1ccc(Cl)cc1)c1ccc(F)c2ccccc12 (stereo partly drawn) [Example 56] | 7.6
